Experimental data taken from patent US11590129B2, “Combination therapy with an antitumor alkaloid” (PHARMA MAR, S.A., priority 2010, dated 2023).

Key:
[1] = tested on: A673 human rhabdomyosarcoma cell line; experiment: cells; conditions: Homo sapiens, A673, 72 h
Method in brief: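 A673 cells seeded at 5,000 per well, grown 24 h drug-free, then exposed to compounds for 72 h. Viability by MTT reduction (8 h, 37 °C), formazan dissolved in DMSO. Results expressed as percentage of control cell growth.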

[2] = tested on: RXF-393 human kidney carcinoma cell line; experiment: cells; conditions: Homo sapiens, RXF 393, 72 h
[3] = tested on: MDA-MB-231 human breast adenocarcinoma cell line; experiment: cells; conditions: Homo sapiens, MDA-MB-231, 72 h
[4] = tested on: SK-MEL-2 human melanoma cell line; experiment: cells; conditions: Homo sapiens, SK-MEL-2, 72 h
Method in brief: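 SK-MEL-2 melanoma cells (5,000/well) grown 24 h drug-free, then exposed 72 h to vehicle or test compounds. Viability by MTT reduction (8 h, 37 °C), formazan dissolved in DMSO; results expressed as percentage of control cell growth.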

A2780 tumors = experiment: Human ovarian tumor xenografts (A2780) in athymic nude mice, tumor volume % T/C; assay type: in vivo
Experimental: Female athymic nude mice (Harlan Laboratories Models, S.L. (Barcelona, Spain) were utilized for all experiments. Animals were housed in individually ventilated cages, up to ten per cage in a 12-hour light-dark cycle at 21-23° C. and 40-60% humidity. The mice were allowed free access to irradiated standard rodent diet and sterilized water. Animals were acclimated for at least 5 days prior to tumor implantation with a tumor cell suspension.
The formula to calculate volume for a prolate ellipsoid was used to estimate tumor volume (mm^3) from 2-dimensional tumor measurements: Tumor volume (mm^3)=[L×W^2]÷2, where L is the length and it is the longest diameter in mm, and W is the width and it is the shortest diameter in mm of a tumor. Assuming unit density, volume was converted to weight (i.e., 1 mm^3=1 mg). Tumor volume and animal body weights were measured 2-3 times per week starting form the first day of treatment (Day 0).
PM01183 was provided in the form of vials of lyophilized PM01183 cake which was reconstituted with water for infusion to a concentration of 0.2 mg/mL. The PM01183 stock solution was further diluted in 5% glucose solution for injection to the dosing formulation concentrations. […] Vinorelbine was provided as a solution prepared by diluting the product with 0.9% saline solution.
Dose level groups were administered either as single agents or in combination.
Comparison of the median tumor volume in the treatment groups (T) to the median tumor volume in the control group (T/C×100%) was used for evaluation of the antitumor efficacy.
Day 9 for PM01183 and vinorelbine study) using the median-effect principle (Chou T. C. Pharmacol. Rev.

[5] = PM01183 0.045 mg/kg iv days 0,7, doxorubicin study
[6] = PM01183 0.045 mg/kg iv days 0,7, paclitaxel study
[7] = PM01183 0.045 mg/kg iv days 0,7, vinorelbine study
[8] = PM01183 0.09 mg/kg iv days 0,7, doxorubicin study
[9] = PM01183 0.09 mg/kg iv days 0,7, paclitaxel study
[10] = PM01183 0.09 mg/kg iv days 0,7, vinorelbine study
[11] = PM01183 0.135 mg/kg iv days 0,7, doxorubicin study
[12] = PM01183 0.135 mg/kg iv days 0,7, paclitaxel study
[13] = PM01183 0.135 mg/kg iv days 0,7, vinorelbine study
[14] = PM01183 0.18 mg/kg iv days 0,7, doxorubicin study
[15] = PM01183 0.18 mg/kg iv days 0,7, paclitaxel study
[16] = PM01183 0.18 mg/kg iv days 0,7, vinorelbine study

Work on `COc1ccc2[nH]c3c(c2c1)CCN[C@]31CS[C@@H]2c3c(OC(C)=O)c(C)c4c(c3[C@H](COC1=O)N1[C@@H]2[C@H]2c3c(cc(C)c(OC)c3O)C[C@@H]([C@@H]1O)N2C)OCO4` [PM01183] yielded an IC50 [1] of 2.2 nM, an IC50 [2] of 5 nM and an IC50 [3] of 3.5 nM. The IC50 [4] was 2 nM, the “% T/C on day 0” value (A2780 tumors; [5]) was 100.1% and the “% T/C on day 3” value (A2780 tumors; [5]) was 98.2%. For the same molecule, the “% T/C on day 5” value (A2780 tumors; [5]) was 98.6%, the “% T/C on day 7” value (A2780 tumors; [5]) was 97.7% and the “% T/C on day 10” value (A2780 tumors; [5]) was 90.0%. The “% T/C on day 0” value (A2780 tumors; [6]) was 94.0%, the “% T/C on day 3” value (A2780 tumors; [6]) was 91.1% and the “% T/C on day 5” value (A2780 tumors; [6]) was 99.6%. The “% T/C on day 7” value (A2780 tumors; [6]) was 88.0%, the “% T/C on day 10” value (A2780 tumors; [6]) was 73.1% and the “% T/C on day 0” value (A2780 tumors; [7]) was 97.8%. The “% T/C on day 2” value (A2780 tumors; [7]) was 107.5%, the “% T/C on day 5” value (A2780 tumors; [7]) was 93.6% and the “% T/C on day 7” value (A2780 tumors; [7]) was 92.5%. The “% T/C on day 9” value (A2780 tumors; [7]) was 97.1%, the “% T/C on day 0” value (A2780 tumors; [8]) was 100.2% and the “% T/C on day 3” value (A2780 tumors; [8]) was 93.3%. For the same molecule, the “% T/C on day 5” value (A2780 tumors; [8]) was 95.2%, the “% T/C on day 7” value (A2780 tumors; [8]) was 93.5% and the “% T/C on day 10” value (A2780 tumors; [8]) was 87.7%. The “% T/C on day 0” value (A2780 tumors; [9]) was 94.2%, the “% T/C on day 3” value (A2780 tumors; [9]) was 88.5% and the “% T/C on day 5” value (A2780 tumors; [9]) was 114.1%. The “% T/C on day 7” value (A2780 tumors; [9]) was 103.3%, the “% T/C on day 10” value (A2780 tumors; [9]) was 88.0% and the “% T/C on day 0” value (A2780 tumors; [10]) was 98.0%. The “% T/C on day 2” value (A2780 tumors; [10]) was 88.6%, the “% T/C on day 5” value (A2780 tumors; [10]) was 61.2% and the “% T/C on day 7” value (A2780 tumors; [10]) was 87.6%. The “% T/C on day 9” value (A2780 tumors; [10]) was 94.5%, the “% T/C on day 0” value (A2780 tumors; [11]) was 102.2% and the “% T/C on day 3” value (A2780 tumors; [11]) was 82.4%. For the same molecule, the “% T/C on day 5” value (A2780 tumors; [11]) was 86.6%, the “% T/C on day 7” value (A2780 tumors; [11]) was 89.2% and the “% T/C on day 10” value (A2780 tumors; [11]) was 82.4%. For the same molecule, the “% T/C on day 0” value (A2780 tumors; [12]) was 101.2%, the “% T/C on day 3” value (A2780 tumors; [12]) was 89.9% and the “% T/C on day 5” value (A2780 tumors; [12]) was 99.8%. The “% T/C on day 7” value (A2780 tumors; [12]) was 84.5%, the “% T/C on day 10” value (A2780 tumors; [12]) was 61.2% and the “% T/C on day 0” value (A2780 tumors; [13]) was 98.3%. The “% T/C on day 2” value (A2780 tumors; [13]) was 105.3%, the “% T/C on day 5” value (A2780 tumors; [13]) was 77.2% and the “% T/C on day 7” value (A2780 tumors; [13]) was 79.1%. For the same molecule, the “% T/C on day 9” value (A2780 tumors; [13]) was 78.7%, the “% T/C on day 0” value (A2780 tumors; [14]) was 100.9% and the “% T/C on day 3” value (A2780 tumors; [14]) was 70.2%. For the same molecule, the “% T/C on day 5” value (A2780 tumors; [14]) was 68.5%, the “% T/C on day 7” value (A2780 tumors; [14]) was 69.3% and the “% T/C on day 10” value (A2780 tumors; [14]) was 62.1%. The “% T/C on day 0” value (A2780 tumors; [15]) was 101.6%, the “% T/C on day 3” value (A2780 tumors; [15]) was 68.9% and the “% T/C on day 5” value (A2780 tumors; [15]) was 83.1%. The “% T/C on day 7” value (A2780 tumors; [15]) was 69.1%, the “% T/C on day 10” value (A2780 tumors; [15]) was 52.8% and the “% T/C on day 0” value (A2780 tumors; [16]) was 98.9%. The “% T/C on day 2” value (A2780 tumors; [16]) was 101.6%, the “% T/C on day 5” value (A2780 tumors; [16]) was 72.2% and the “% T/C on day 7” value (A2780 tumors; [16]) was 61.3%. The “% T/C on day 9” value (A2780 tumors; [16]) was 62.8%.
